Assay results from patent US4162938A, “Antibiotic compound” (Bristol-Myers Company, priority 1978, dated 1979).
Read-outs that look alike come from different tables or passages of the source.

Columns and labels:
[1] = test system: Streptococcus faecalis A-20688; assay: MIC, standard tube dilution procedure; type: cell-based
Procedure: (§1) The in vitro minimum inhibitory concentrations (MIC) of rudolphomycin were determined for a number of microorganisms using the standard tube dilution procedure.

[2] = test system: Serratia marcescens A-20019; assay: MIC, standard tube dilution procedure; type: cell-based
Procedure: as §1

[3] = test system: Pseudomonas aeruginosa A-9843A; assay: MIC, standard tube dilution procedure; type: cell-based
Procedure: as §1

[4] = test system: Streptococcus pneumoniae A-9585; assay: MIC, standard tube dilution procedure; type: cell-based
Procedure: as §1

Escherichia coli A-15119 = assay: MIC, standard tube dilution procedure; type: cell-based
Procedure: as §1

[5] = test system: Klebsiella pneumoniae A-15130; assay: MIC, standard tube dilution procedure; type: cell-based
Procedure: as §1

[6] = test system: Trichophyton mentagrophytes A-9870; assay: MIC, standard tube dilution procedure; type: cell-based
Procedure: as §1

Proteus mirabilis A-9900 = assay: MIC, standard tube dilution procedure; type: cell-based
Procedure: as §1

[7] = test system: Streptococcus pyogenes A-9604; assay: MIC, standard tube dilution procedure; type: cell-based
Procedure: as §1

[8] = test system: Candida tropicalis A-15051; assay: MIC, standard tube dilution procedure; type: cell-based
Procedure: as §1

Microsporum canis A-9872 = assay: MIC, standard tube dilution procedure; type: cell-based
Procedure: as §1

[9] = test system: Enterobacter cloacae A-9659; assay: MIC, standard tube dilution procedure; type: cell-based
Procedure: as §1

[10] = test system: Cryptococcus neoformans A-15053; assay: MIC, standard tube dilution procedure; type: cell-based
Procedure: as §1

Candida albicans A-9540 = assay: MIC, standard tube dilution procedure; type: cell-based
Procedure: as §1

Proteus vulgaris A-9716 = assay: MIC, standard tube dilution procedure; type: cell-based
Procedure: as §1

[11] = test system: Escherichia coli A-20341-1; assay: MIC, standard tube dilution procedure; type: cell-based
Procedure: as §1

[12] = test system: Staphylococcus aureus A-9537; assay: MIC, standard tube dilution procedure; type: cell-based
Procedure: as §1

[13] = test system: Staphylococcus aureus A-9606; assay: MIC, standard tube dilution procedure; type: cell-based
Procedure: as §1

Candida krusei A-15052 = assay: MIC, standard tube dilution procedure; type: cell-based
Procedure: as §1

L-1210 leukemia = type: in vivo, mouse (BDF1 female)
Procedure: The compound of the present invention was also tested against the transplantable mouse tumor L-1210 lymphatic leukemia which is responsive to anthracycline-type antitumor agents.
Tumor inoculum: 10^6 ascites cells implanted i.p.
Host: BDF1 .female. mice
Evaluation: MST = median survival time
Effect: % T/C = MST treated/MST control × 100
Criteria: T/C ≥ 125 considered significant antitumor effect.

P388 mouse leukemia = assay: Activity of chromatographic bands on P388 mouse leukemia system; type: in vivo; conditions: Example 4 bands
L1210 mouse leukemia = assay: Activity of chromatographic bands on L1210 mouse leukemia system; type: in vivo; conditions: Example 4 bands
[14] = Biological activity of chromatographic fractions of bohemic acid complex (test not specified); conditions: Example 5, large scale LH-20
[15] = day 1 (1 inj.), 0.4 mg./kg./inj.
[16] = day 1 (1 inj.), 0.8 mg./kg./inj.
[17] = day 1 (1 inj.), 1.6 mg./kg./inj.
[18] = day 1 (1 inj.), 3.2 mg./kg./inj.
[19] = day 1 (1 inj.), 6.4 mg./kg./inj.
[20] = day 1 (1 inj.), 12.8 mg./kg./inj.
[21] = days 1, 4, 7 (3 inj.), 0.2 mg./kg./inj.
[22] = days 1, 4, 7 (3 inj.), 0.4 mg./kg./inj.
[23] = days 1, 4, 7 (3 inj.), 0.8 mg./kg./inj.
[24] = days 1, 4, 7 (3 inj.), 1.6 mg./kg./inj.
[25] = days 1, 4, 7 (3 inj.), 3.2 mg./kg./inj.
[26] = days 1, 4, 7 (3 inj.), 6.4 mg./kg./inj.
[27] = days 1→5 (5 inj.), 0.1 mg./kg./inj.
[28] = days 1→5 (5 inj.), 0.2 mg./kg./inj.
[29] = days 1→5 (5 inj.), 0.4 mg./kg./inj.
[30] = days 1→5 (5 inj.), 0.8 mg./kg./inj.
[31] = days 1→5 (5 inj.), 1.6 mg./kg./inj.
[32] = days 1→5 (5 inj.), 3.2 mg./kg./inj.
[33] = days 1→9 (9 inj.), 0.05 mg./kg./inj.
[34] = days 1→9 (9 inj.), 0.1 mg./kg./inj.
[35] = days 1→9 (9 inj.), 0.2 mg./kg./inj.
[36] = days 1→9 (9 inj.), 0.4 mg./kg./inj.
[37] = days 1→9 (9 inj.), 0.8 mg./kg./inj.
[38] = days 1→9 (9 inj.), 1.6 mg./kg./inj.

CC[C@@]1(O)C[C@H](O[C@H]2C[C@H](N(C)C)[C@H](O[C@H]3C[C@H](O)[C@H](O[C@@H]4O[C@@H](C)C(=O)C=C4N)[C@@H](C)O3)[C@@H](C)O2)c2c(cc3c(c2O)C(=O)c2c(O)ccc(O)c2C3=O)[C@H]1C(=O)OC [Rudolphomycin]
9.0 days: MST (median survival time) (L-1210 leukemia; [26]) | MST (median survival time) (L-1210 leukemia; [28]) | MST (median survival time) (L-1210 leukemia; [29]) | MST (median survival time) (L-1210 leukemia; [31]) | MST (median survival time) (L-1210 leukemia; [32]) | MST (median survival time) (L-1210 leukemia; [35]) | MST (median survival time) (L-1210 leukemia; [36]) | MST (median survival time) (L-1210 leukemia; [37])
> 125 µg/mL: MIC [6] | MIC [8] | MIC (Microsporum canis A-9872) | MIC (Candida albicans A-9540) | MIC (Candida krusei A-15052)
0.5 µg/mL: MIC [7]
7.5 days: MST (median survival time) (L-1210 leukemia; [34]) | MST (median survival time) (L-1210 leukemia; [38])
114%: MST % T/C (L-1210 leukemia; [15]) | MST % T/C (L-1210 leukemia; [16]) | MST % T/C (L-1210 leukemia; [17]) | MST % T/C (L-1210 leukemia; [21]) | MST % T/C (L-1210 leukemia; [22]) | MST % T/C (L-1210 leukemia; [27]) | MST % T/C (L-1210 leukemia; [33])
4 µg/mL: MIC [1]
136%: MST % T/C (L-1210 leukemia; [23])
2 µg/mL: MIC [12]
10.0 days: MST (median survival time) (L-1210 leukemia; [18]) | MST (median survival time) (L-1210 leukemia; [19]) | MST (median survival time) (L-1210 leukemia; [20]) | MST (median survival time) (L-1210 leukemia; [24]) | MST (median survival time) (L-1210 leukemia; [30])
129%: MST % T/C (L-1210 leukemia; [26]) | MST % T/C (L-1210 leukemia; [28]) | MST % T/C (L-1210 leukemia; [29]) | MST % T/C (L-1210 leukemia; [31]) | MST % T/C (L-1210 leukemia; [32]) | MST % T/C (L-1210 leukemia; [35]) | MST % T/C (L-1210 leukemia; [36]) | MST % T/C (L-1210 leukemia; [37])
107%: MST % T/C (L-1210 leukemia; [34]) | MST % T/C (L-1210 leukemia; [38])
63 µg/mL: MIC [10]
8 µg/mL: MIC [13]
> 63 µg/mL: MIC [2] | MIC [3] | MIC (Escherichia coli A-15119) | MIC [5] | MIC (Proteus mirabilis A-9900) | MIC [9] | MIC (Proteus vulgaris A-9716) | MIC [11]
9.5 days: MST (median survival time) (L-1210 leukemia; [23])
0.25 µg/mL: MIC [4]
8.0 days: MST (median survival time) (L-1210 leukemia; [15]) | MST (median survival time) (L-1210 leukemia; [16]) | MST (median survival time) (L-1210 leukemia; [17]) | MST (median survival time) (L-1210 leukemia; [21]) | MST (median survival time) (L-1210 leukemia; [22]) | MST (median survival time) (L-1210 leukemia; [27]) | MST (median survival time) (L-1210 leukemia; [33])
100%: MST % T/C (L-1210 leukemia; [25])
143%: MST % T/C (L-1210 leukemia; [18]) | MST % T/C (L-1210 leukemia; [19]) | MST % T/C (L-1210 leukemia; [20]) | MST % T/C (L-1210 leukemia; [24]) | MST % T/C (L-1210 leukemia; [30])
7.0 days: MST (median survival time) (L-1210 leukemia; [25])

CC[C@@]1(O)C[C@H](O[C@H]2C[C@H](N(C)C)[C@H](O[C@H]3C[C@H](O)[C@H](O)[C@H](C)O3)[C@H](C)O2)c2c(cc3c(c2O)C(=O)c2c(O)ccc(O)c2C3=O)[C@H]1C(=O)OC [musettamycin]
highly active: activity on P388 mouse leukemia (P388 mouse leukemia) | activity on L1210 mouse leukemia (L1210 mouse leukemia)
active: activity of chromatographic fraction [14]
